Read-outs that look alike come from different tables or passages of the source.
What was measured:
FADD−/− Jurkat cells = experiment: TNF-induced programmed cell necrosis inhibition, Cell Titer-Glo viability; assay type: cell-based; conditions: Homo sapiens, Jurkat
Text: (§1) The adopted biological assay protocol was: the programmed necroptosis effect of compounds on TNF-induced in FADD (Fas-Associated Death Domain) deficient Jurkat cells and L929 cells.
(§2) In order to verify the inhibitory effect of the compounds of the present invention on programmed cell necrosis at the cellular level, cell types closely related to the RIP1 pathway, namely FADD deficient Jurkat cells (human peripheral blood leukemia T cell line) and L929 cells, were selected. Two different stimulation methods were used: tumor necrosis factor (TNFα) used alone, or TNFα used in combination with mitochondria-derived cysteine aspartate activator (SMAC). Cells viability was calculated by detecting chemiluminescence values, and the biological activity of the compound for inhibiting programmed cell necrosis can be obtained.
(§3) Methods: FADD deficient Jurkat cells: FADD deficient Jurkat cells (human peripheral blood leukemia T cell line) were cultured in vitro. After growing to the logarithmic growth phase, the cells were collected, centrifuged at 1000 rpm for 5 min, the supernatant was discarded, and the cell concentration was adjusted to 2.5×10^5/mL. Cells were seeded into 384-well plates, 40 μl per well. 5 μL of Smac (50 nM) diluted in cell culture medium and 5 μL of each compound were added to the corresponding wells. After pretreatment at 37° C. for 1 h, 5 μL of TNFα (50 ng/mL) diluted in cell culture medium was added to each well of the stimulation group, and 5 μL of the culture medium was added to the control group. The plate was cultured in a cell incubator (37° C., 5% CO2) for 14 h, and 15 μl of Cell Titer-Glo solution was added to each well, then incubated for 30 min at room temperature, and intracellular ATP level was measured by detecting luminescence. The unstimulated DMSO control wells were taken as 100% cell viability. L929 cells: The L929 cells (mouse fibroblasts) were cultured in vitro, digested and diluted to 6.25×10^4/ml, and the cells were seeded into 384-well plates, 40 μl per well. The plate was placed in a cell incubator (37° C., 5% CO2) for 12 hours. 5 μL of Smac (500 nM) diluted in cell culture medium and 5 μL of each compound were added to the corresponding wells. After pretreatment at 37° C. for 1 h, 5 μL of TNFα (500 ng/mL) diluted in cell culture medium was added to each well of the stimulation group, and 5 μL of the culture medium was added to the control group. After the plate was cultured for 14 h in a cell incubator (37° C., 5% CO2), 15 μl of Cell Titer-Glo solution was added to each well. The plate was incubated at room temperature for 30 min, and intracellular ATP level was measured by detecting luminescence. The unstimulated DMSO control wells were taken as 100% cell viability. EC50 values of the compounds were calculated using Prism Graphpad statistical software.
FADD deficient Jurkat cells: FADD deficient Jurkat cells (human peripheral blood leukemia T cell line) were cultured in vitro. After growing to the logarithmic growth phase, the cells were collected, centrifuged at 1000 rpm for 5 min, the supernatant was discarded, and the cell concentration was adjusted to 2.5×10^5/mL. Cells were seeded into 384-well plates, 40 μl per well. 5 μL of Smac (50 nM) diluted in cell culture medium and 5 μL of each compound were added to the corresponding wells. After pretreatment at 37° C. for 1 h, 5 μL of TNFα (50 ng/mL) diluted in cell culture medium was added to each well of the stimulation group, and 5 μL of the culture medium was added to the control group. After the plate was cultured in a cell incubator (37° C., 5% CO2) for 14 h, 15 μl of Cell Titer-Glo solution was added to each well. The mixture was incubated for 30 min at room temperature, and intracellular ATP level was measured by detecting luminescence. The unstimulated DMSO control wells were taken as 100% cell viability.

L929 cells = experiment: as above; assay type: cell-based, mouse; conditions: Mus musculus, read-out: EC50 inhibitory activity on programmed cell necrosis
Text: as §1, §2, §3
L929 cells: The L929 cells (mouse fibroblasts) were cultured in vitro, digested and diluted to 6.25×10^4/ml, and the cells were seeded into 384-well plates, 40 μl per well. The plate was placed in a cell incubator (37° C., 5% CO2) for 12 hours. 5 μL of Smac (500 nM) diluted in cell culture medium and 5 μL of each compound were added to the corresponding wells. After pretreatment at 37° C. for 1 h, 5 μL of TNFα (500 ng/mL) diluted in cell culture medium was added to each well of the stimulation group, and 5 μL of the culture medium was added to the control group. After the plate was cultured for 14 h in a cell incubator (37° C., 5% CO2), and 15 μl of Cell Titer-Glo solution was added to each well, then incubated at room temperature for 30 min, and intracellular ATP level was measured by detecting luminescence. The unstimulated DMSO control wells were taken as 100% cell viability.

[1] = 14 h, TNFa + SM164, read-out: EC50 inhibitory activity on programmed cell necrosis
[2] = TNFa, read-out: EC50 inhibitory activity on programmed cell necrosis
[3] = L929, 14 h, L929 cells (mouse), TNFa + SM164

Row | Compound | EC50 (FADD−/− Jurkat cells; [1]) [nM] | EC50 (FADD−/− Jurkat cells; [2]) [nM] | EC50 (L929 cells; [3]) [nM] | EC50 (L929 cells; L929, L929 cells (mouse), TNFa) [nM] | EC50 (L929 cells; L929, L929 cells (mouse), TNFa + SM164) [nM]
1 | COc1cccc(C2CCCN2C(=O)C(C)(C)Oc2ccc(Cl)cc2F)c1 (centres unmarked) [QY-4-70] | > 10000 | > 10000 | > 10000 | 1780 | –
2 | Cc1ccc(C2CCCN2C(=O)C(C)(C)Oc2ccc(Cl)cc2F)cc1 (centres unmarked) [QY-4-75] | 704 | 83 | 188 | 43 | –
3 | CC(C)(Oc1ccc(Cl)cc1F)C(=O)N1CCCC1c1ccccc1F (centres unmarked) [QY-4-78] | 1100 | 205 | 724 | 156 | –
4 | COc1ccc(C2CCCN2C(=O)C(C)(C)Oc2ccc(Cl)cc2F)cc1 (centres unmarked) [QY-4-87] | > 10000 | 2380 | > 10000 | 2400 | –
5 | CC(C)(Oc1ccc(Cl)cc1F)C(=O)N1CCCC1c1ccc(C#N)cc1 (centres unmarked) [QY-4-88] | 4000 | 746 | 3100 | 1160 | –
6 | CCc1ccc(C2CCCN2C(=O)C(C)(C)Oc2ccc(Cl)cc2)cc1 (centres unmarked) [QY-4-96] | 6930 | 1460 | 8130 | 2100 | –
7 | CCc1ccc(C2CCCN2C(=O)C(C)(C)Oc2ccc(Cl)cc2F)cc1 (centres unmarked) [QY-4-99] | 9200 | 1450 | 9120 | 2510 | –
8 | CC(C)c1ccc(C2CCCN2C(=O)C(C)(C)Oc2ccc(Cl)cc2F)cc1 (centres unmarked) [QY-5-1] | > 10000 | > 10000 | > 10000 | > 10000 | –
9 | CN(C)c1ccc(C2CCCN2C(=O)C(C)(C)Oc2ccc(Cl)cc2F)cc1 (centres unmarked) [QY-5-4] | > 10000 | > 10000 | > 10000 | > 10000 | –
10 | Cc1ccc([C@@H]2CCCN2C(=O)C(C)(C)Oc2ccc(Cl)cc2F)cc1 [QY-5-22, (S)-2-(4-Chloro-2-fluorophenoxy)-2-methyl-1-(2-(p-tolyl)pyrrolidin-1-yl)propan-1-one] | 683 | 98 | – | 62 | 262
11 | CNC(=O)c1ccc(C2CCCN2C(=O)C(C)(C)Oc2ccc(Cl)cc2F)cc1 (centres unmarked) [QY-5-79] | 1060 | 9230 | > 10000 | > 10000 | –
12 | CC(C)(Oc1ccc(Cl)cc1F)C(=O)N1CCCC1c1ccc(C(F)(F)F)cc1 (centres unmarked) [QY-5-83] | 7720 | 1290 | > 10000 | 8750 | –
13 | CC(C)(Oc1ccc(Cl)cc1F)C(=O)N1CCCC1c1ccc(C(N)=O)cc1 (centres unmarked) [QY-5-85] | > 10000 | 5340 | > 10000 | > 10000 | –
14 | Cc1ccc(C2CC=NN2C(=O)C(C)(C)Oc2ccc(Cl)cc2F)cc1 (centres unmarked) [QY-6-47] | 90 | 5 | 49 | 18 | –
15 | CC(C)(Oc1ccc(Cl)cc1F)C(=O)N1CCC[C@H]1c1cc(F)cc(F)c1 [QY-6-60] | 707 | 17 | 402 | 130 | –
16 | CC(C)(Oc1ccc(Cl)cc1F)C(=O)N1CCC[C@H]1c1ccc(F)c(F)c1 [QY-6-61] | 379 | 12 | 218 | 75 | –
17 | CC(C)(Oc1ccc(Cl)cc1F)C(=O)N1CCC[C@H]1c1ccc(F)cc1 [QY-6-62] | 117 | 3 | 174 | 44 | –
